# Experimental data: PMC5041982, “Small-molecule inhibition of STAT3 in radioresistant head and neck squamous cell carcinoma” (Oncotarget, 2016)
# Tests used:
# [1] = biological target: STAT3 (Homo sapiens, UniProt P40763); test: STAT3/pY-peptide binding surface plasmon resonance (SPR) assay; conditions: for Inhibition of STAT3 binding to pY-peptide compared with C188: SPR; for IC50: STAT3 200 nM, EGFR pY1068 dodecapeptide, mean, n ≥ 2, read-out: pY-Peptide Binding (SPR) IC50
# Description: The equilibrium binding levels obtained ± compound were normalized (resonance obtained in the presence of compound ÷ the resonance obtained in the absence of compound × 100) and plotted against Log [nM] […] B. Inhibition of ligand-stimulated STAT phosphorylation, measured by phosphoflow. Serum-starved (1 hour) Kasumi-1 cells, pre-incubated with compound/DMSO (1 hour), were treated with G-CSF (10 ng/ml, 15 min, left two panels) or IFN-γ (10ng/ml, 15 min, right panel). Cells were permeabilized and stained with Alexa647-pSTAT3, and PE-pSTAT1 antibodies and analyzed on BD LSR2. FCS files were uploaded to Cytobank for pSTAT3 and pSTAT1 quantitation. Histograms depicting pSTAT3 and pSTAT1 levels are shown. C. Mean fluorescence (pSTAT3/1) levels were plotted as function the Log [M] compound, and IC50 calculated using GraphPad. […] D. Inhibition of ligand-stimulated STAT phosphorylation, measured by Luminex. Serum-starved (1 hour) Kasumi-1 cells, pre-incubated with compound/DMSO (0/0.1/0.3/1/3/10/100 μM, 1 hour), were treated with G-CSF (10 ng/ml, 15′). Total protein extracts of cells were assayed for pSTAT3, pSTAT1, and GAPDH levels by Luminex. GAPDH-normalized pSTAT3 or pSTAT1 values were divided by this ratio for untreated cells and expressed in percentage. These values were plotted as a function of Log [M] compound, and IC50 values calculated using GraphPad. […]
# 3-D pharmacophore sorting used to evaluate the effect of each compound on STAT3 binding. Responses were normalized by dividing the […]
# fingerprint screening were converted into 3-D structures compounds at 2 min and multiplying by 100. IC values […]
# for analysis as described below. were determined by plotting % maximum response as a 3-D pharmacophore generation function of log concentration of compound and fitting the Each molecular chemical feature, including experimental points to a competitive binding model using hydrogen bond donor, hydrogen bond acceptor, positive a four parameter logistic equation: R = Rhigh − (Rhigh − R low)/ (1 + conc/A1)^A2, where R = percent response at and negative ionizable group, and hydrophobic region, inhibitor concentration, R = percent response with no was generated using the LigandScout application compound, R= percent response at highest compound high framework and projected into 3-D space. concentration, A2 = fitting parameter (slope) and A1 = low Feature-pairing IC50 (BIAevaluation Software version 4.1). The inhibition Each chemical feature was converted into distance constant (Ki) was derived from the Cheng-Prusoff bin and the complete set of distance bins used to construct equation Ki=IC50/(1+[C]/Kd) as used by Halling et al a cost matrix. The most favorable pairing based on cost where C stands for STAT3 concentration used in the SPR matrix was identified. assay and Kd denotes the dissociation constant for STAT3 3-D pharmacophore transformation binding to its phosphorylated EGFR ligand in the SPR […]
# STAT3/pY-peptide binding assay and total protein extracted from cell pellets. […]
# STAT3 binding assays were performed at 25 °C (Millipore, Danvers, MA) coupled to antibody against
# [2] = biological target: T1, pSTAT3 (Tyr-705) (Homo sapiens, UniProt P40763); test: Phosphoflow, G-CSF-induced STAT3 phosphorylation in Kasumi-1 cells; format: cell-based; conditions: Kasumi-1, G-CSF 10 ng/ml 15 min; mean, n ≥ 2; read-out: Ligand Induced Phosphorylation (Phosphoflow) pSTAT3 (GCSF) IC50
# T1 construct: endogenous in cells; host or cells: Kasumi-1
# T1 sequence (P40763 whole entry): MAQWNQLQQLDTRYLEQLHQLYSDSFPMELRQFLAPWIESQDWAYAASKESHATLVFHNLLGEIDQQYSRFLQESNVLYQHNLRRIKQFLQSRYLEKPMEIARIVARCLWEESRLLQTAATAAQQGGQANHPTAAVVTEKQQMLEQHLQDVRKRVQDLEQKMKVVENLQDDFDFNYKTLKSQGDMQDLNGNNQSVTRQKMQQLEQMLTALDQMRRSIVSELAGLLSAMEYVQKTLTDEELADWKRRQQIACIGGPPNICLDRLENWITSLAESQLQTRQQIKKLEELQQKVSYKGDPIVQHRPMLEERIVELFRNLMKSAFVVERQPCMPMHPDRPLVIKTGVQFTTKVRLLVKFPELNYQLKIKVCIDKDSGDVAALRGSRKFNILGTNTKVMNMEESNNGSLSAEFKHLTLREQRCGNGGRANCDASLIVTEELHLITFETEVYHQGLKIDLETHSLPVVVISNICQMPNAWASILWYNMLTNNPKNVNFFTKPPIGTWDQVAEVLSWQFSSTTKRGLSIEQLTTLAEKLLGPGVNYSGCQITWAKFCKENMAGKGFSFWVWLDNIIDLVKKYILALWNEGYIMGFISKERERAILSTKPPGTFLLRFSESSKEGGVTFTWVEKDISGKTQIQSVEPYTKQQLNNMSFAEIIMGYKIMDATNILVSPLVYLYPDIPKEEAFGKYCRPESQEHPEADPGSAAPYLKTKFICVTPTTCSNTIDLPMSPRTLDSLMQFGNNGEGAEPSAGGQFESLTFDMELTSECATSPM
# Description: (§1) The equilibrium binding levels obtained ± compound were normalized (resonance obtained in the presence of compound ÷ the resonance obtained in the absence of compound × 100) and plotted against Log [nM] […] B. Inhibition of ligand-stimulated STAT phosphorylation, measured by phosphoflow. Serum-starved (1 hour) Kasumi-1 cells, pre-incubated with compound/DMSO (1 hour), were treated with G-CSF (10 ng/ml, 15 min, left two panels) or IFN-γ (10ng/ml, 15 min, right panel). Cells were permeabilized and stained with Alexa647-pSTAT3, and PE-pSTAT1 antibodies and analyzed on BD LSR2. FCS files were uploaded to Cytobank for pSTAT3 and pSTAT1 quantitation. Histograms depicting pSTAT3 and pSTAT1 levels are shown. C. Mean fluorescence (pSTAT3/1) levels were plotted as function the Log [M] compound, and IC50 calculated using GraphPad. […] D. Inhibition of ligand-stimulated STAT phosphorylation, measured by Luminex. Serum-starved (1 hour) Kasumi-1 cells, pre-incubated with compound/DMSO (0/0.1/0.3/1/3/10/100 μM, 1 hour), were treated with G-CSF (10 ng/ml, 15′). Total protein extracts of cells were assayed for pSTAT3, pSTAT1, and GAPDH levels by Luminex. GAPDH-normalized pSTAT3 or pSTAT1 values were divided by this ratio for untreated cells and expressed in percentage. These values were plotted as a function of Log [M] compound, and IC50 values calculated using GraphPad.
# (§2) Phosphoflow analysis was done as described in Xu et al. Briefly, Kasumi-1 cells, were serum-starved, pre-treated with compound or DMSO (1 hour, RT) and then stimulated with 20 μl of GCSF (10 ng/ml) for 15 minutes at 37°C. The cells were then permeabilized and stained with Alexa647-pSTAT3, Alexa488-pSTAT5 and PE-pSTAT1 antibodies and analyzed using the BD LSR2. FCS files were exported and uploaded to Cytobank for determination of phosphoproteins as earlier. Gating was done on live, single cells and then gates selected for positive ligand-activated pSTAT3 and pSTAT1. IC50 values were calculated using the GraphPad Prism.
# [3] = system: pSTAT5; test: Phosphoflow, G-CSF-induced pSTAT5 in Kasumi-1 cells; format: cell-based; conditions: mean, n ≥ 2, read-out: Ligand Induced Phosphorylation (Phosphoflow) pSTAT5 (G-CSF) IC50
# Description: as §2
# [4] = biological target: T2, pSTAT1 (Tyr-701) (Homo sapiens, UniProt P42224); test: Phosphoflow, IFN-γ-induced pSTAT1 in Kasumi-1 cells; format: cell-based; conditions: Kasumi-1, IFN-γ 10 ng/ml 15 min; mean, n ≥ 2; read-out: Ligand Induced Phosphorylation (Phosphoflow) pSTAT1 (IFN-γ) IC50
# T2 construct: endogenous in cells; host or cells: Kasumi-1
# T2 sequence (P42224 1-750): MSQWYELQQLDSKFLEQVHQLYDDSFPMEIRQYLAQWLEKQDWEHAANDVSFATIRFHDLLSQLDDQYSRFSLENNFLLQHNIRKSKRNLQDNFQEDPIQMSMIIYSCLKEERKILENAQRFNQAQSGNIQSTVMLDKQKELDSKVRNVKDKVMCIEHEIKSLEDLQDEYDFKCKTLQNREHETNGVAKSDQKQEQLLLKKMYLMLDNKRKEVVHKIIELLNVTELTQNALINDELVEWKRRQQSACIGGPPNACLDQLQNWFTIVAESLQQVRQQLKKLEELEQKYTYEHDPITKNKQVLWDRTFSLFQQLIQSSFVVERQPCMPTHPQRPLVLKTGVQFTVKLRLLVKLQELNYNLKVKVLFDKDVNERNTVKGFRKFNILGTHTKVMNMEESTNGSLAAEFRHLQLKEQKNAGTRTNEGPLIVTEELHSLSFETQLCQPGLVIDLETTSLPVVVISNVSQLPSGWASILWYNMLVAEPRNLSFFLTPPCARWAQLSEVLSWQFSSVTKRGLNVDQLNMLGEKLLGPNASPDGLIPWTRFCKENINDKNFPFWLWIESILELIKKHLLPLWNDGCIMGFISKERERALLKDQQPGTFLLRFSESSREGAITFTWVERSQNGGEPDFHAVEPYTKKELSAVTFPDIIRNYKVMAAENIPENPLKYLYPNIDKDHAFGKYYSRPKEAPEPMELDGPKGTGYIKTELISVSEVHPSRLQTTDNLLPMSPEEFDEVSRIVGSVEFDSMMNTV
# Description: as §1, §2
# [5] = system: normal murine bone marrow colony formation; test: Normal murine bone marrow colony formation; format: cell-based; conditions: studies not shown (Tweardy et al 2010, unpublished)
# STAT3, sequence (P40763 whole entry, species assumed): as the sequence (P40763 whole entry) above
Compound,Inhibition of STAT3 binding to pY-peptide compared with C188 [1],IC50 [1],IC50 [2],IC50 [3],IC50 [4],Inhibition of normal murine bone marrow colony formation [5]
Cc1cc(C)c(C)c(S(=O)(=O)Nc2cc(SCC(=O)O)c(O)c3ccccc23)c1C [Compound C188-14],activity similar to C188,8.7 ± 9.1 µM,40.3 ± 50.8 µM,10 µM,57 µM,
O=S(=O)(Nc1cc(Sc2nc[nH]n2)c(O)c2ccccc12)c1ccc(Br)cc1 [Compound C188-15],improved inhibition,1.5 ± 0.7 µM,3.3 ± 0.2 µM,12 ± 1.4 µM,,inhibited
Cc1cc(C)c(S(=O)(=O)Nc2cc(Sc3nc[nH]n3)c(O)c3ccccc23)cc1C [Compound C188-18],improved inhibition,3.5 ± 0.7 µM,> 300 µM,> 300 µM,> 300 µM,
COc1ccc(OC)c(S(=O)(=O)Nc2cc(Sc3ccccc3)c(O)c3ccccc23)c1 [Compound C188-19],improved inhibition,5.5 ± 4.9 µM,> 300 µM,> 300 µM,> 300 µM,
CCOC(=O)c1c(C)oc2c1cc(NS(=O)(=O)c1cccc3cccnc13)c1ccccc12 [Compound C188-20],,27 ± 25.5 µM,> 300 µM,> 300 µM,9 µM,
CCc1ccc(S(=O)(=O)Nc2cc3c(C(=O)OCCOC)c(C)oc3c3ccccc23)cc1 [Compound C188-22],,73 ± 17 µM,> 300 µM,> 300 µM,> 300 µM,
CC(=O)Nc1ccc(S(=O)(=O)Nc2cccc3ccccc23)cc1 [Compound C188-23],,> 300 µM,> 300 µM,> 300 µM,> 300 µM,
O=S(=O)(Nc1cccc2ccccc12)c1ccc(Cl)cc1 [Compound C188-24],,> 300 µM,> 300 µM,> 300 µM,> 300 µM,
CC1(C)CC(=O)c2c(oc3c2cc(NS(=O)(=O)c2ccc(Br)cc2)c2ccccc23)C1 [Compound C188-25],,45 ± 8.5 µM,> 300 µM,> 300 µM,17 µM,
Cc1oc2c(cc(NS(=O)(=O)c3ccc(Cl)cc3)c3ccccc32)c1C(=O)OCc1ccccc1 [Compound C188-30],,70.5 ± 70 µM,> 300 µM,> 300 µM,> 300 µM,
Cc1cc(C)c(S(=O)(=O)Nc2cc(C(C(=O)OC(C)C)C(=O)C(F)(F)F)c(O)c3ccccc23)cc1C (stereo not drawn) [Compound C188-31],,42 ± 7.1 µM,13 µM,> 300 µM,47 µM,
Cc1ccc(S(=O)(=O)Nc2cc3sc(=O)oc3c3ccccc23)c(C)c1 [Compound C188-32],,48 ± 19.8 µM,7.5 ± 3.6 µM,> 300 µM,3 µM,
CC(C)(C)c1ccc(S(=O)(=O)Nc2cc3sc(=O)oc3c3ccccc23)cc1 [Compound C188-33],,20 ± 4.2 µM,7.9 ± 5.8 µM,6 µM,10 µM,
Cc1cc(S(=O)(=O)Nc2cc3c4c(oc3c3ccccc23)CCCC4=O)ccc1Cl [Compound C188-34],,13.5 ± 3.5 µM,> 300 µM,> 300 µM,> 300 µM,
CC(C)(C)c1ccc(S(=O)(=O)Nc2cc3c4c(oc3c3ccccc23)CCCC4=O)cc1 [Compound C188-36],,31.5 ± 7.8 µM,> 300 µM,> 300 µM,> 300 µM,
CC(C)c1ccc(S(=O)(=O)Nc2cc3c4c(oc3c3ccccc23)CCCC4)cc1 [Compound C188-37],,24.5 ± 6.4 µM,> 300 µM,> 300 µM,> 300 µM,
O=S(=O)(Nc1ccc(O)c2ccccc12)c1cccc2cccnc12 [Compound C188-39],,> 300 µM,> 300 µM,> 300 µM,> 300 µM,
